# What was measured:
# ACLY [1] = biological target: T1, ACLY (Homo sapiens (Human), UniProt P53396); test: Human ACLY (hACLY) RF/MS activity assay; format: biochemical; settings: 1 nM hACLY; 30 min pre-incubation; 15 μM Coenzyme A, 50 μM ATP, 50 μM citrate; CoA to Acetyl-CoA by RF/MS; read-out: RFMS IC50 GMean
# Method: Compounds of the disclosure were evaluated for their efficacy in inhibiting hACLY using rapid fire mass spectrometry (RF/MS).
# The final reaction volume for each compound was 20 μl and consisted of buffer (50 mM Hepes pH 8.0, 10 mM MgCl2, 0.003% BSA, 0.01% Brij35, 50 mM NaCl, 4 mM DTT) and 1 nM hACLY, EV12992, PP6692) using Greiner, 384 well small volume, deep well plates (Cat #784201). A two-fold dilution series with a top concentration of 10 μM was used to record a concentration response curve. Both the substrate (CoA) and product (Acetyl-CoA) were quantified, and given a ratio. […] The final DMSO-concentration was 1% (v/v). Compounds were pre-incubated for 30 min with the buffered enzyme solution at RT (20° C.), and substrate solution was added (final concentrations: 15 μM Coenzyme A, 50 μM ATP and 50 μM citrate) to initiate the enzyme reaction. The enzyme reaction was incubated for additional 30 min at RT. The reaction was quenched upon addition of 40 μl of 5% Formic acid in H2O and centrifuged (4350 rpm at 20° C. for 10 min).
# Product formation was quantified using a RF/MS-based method based on mass change of CoA (substrate) to Acetyl-CoA (product).
# ACLY [2] = biological target: T1, ACLY; test: InCell Pulse assay (permeate HEK293 cells, bind to and stabilize ACLY); format: cell-based; settings: HEK293 cells transfected with pICP-ACLY(FL)-ePL; 1 hour at 37° C., 55° C. heat pulse 10 minutes; read-out: InCell Pulse IC50 GMean
# Method: HEK293 cells transfected for 24 hours with pICP-ACLY(FL)-ePL (3 μg DNA per T25 flask) using FuGene HD (Promega Corp.) were harvested and cryopreserved. On the day of the assay, the frozen transfected cells were thawed at 37° C., and the storage medium (DMEM with 2 mM L-Glutamine, 10% FBS and a final concentration of DMSO 10%) was exchanged with assay medium (OptiMEM; Gibco™, ThermoFischer Scientific). Compounds were 3-fold serially diluted in DMSO over 11-point concentration range. 100 nL of the corresponding dilutions were spotted into the assay plate (Greiner AG; 384 Well, PP, Small Volume, Deep Well, Natural, cat. no. 784201) followed by the addition of 20 μL of cell suspension adjusted with assay medium to 7.5E4 cells/mL. Subsequently, the plates were sealed and incubated for 1 hour at 37° C. Afterwards, the plates were fixed upside down in a rack and incubated in a 55° C. water bath for 10 minutes. Following this heat pulse step, plates were allowed to reach room temperature for 10 minutes and centrifuged for a few seconds at 1000 rpm and room temperature. 25 μL EA detection solution (working solution: 0.0167× InCell EA Reagent, 0.15× InCell Dilution Buffer, 0.167× InCell Lysis Buffer; 0.667× InCell Substrate Reagent; InCell Hunter Detection kit; Eurofins DiscoverX; cat. no. 96-0079) were added to each well. Afterwards, 42 μL were transferred from the assay plate to the detection plate (Corning Inc., 384-well Low Flange Black Flat Bottom Polystyrene NBS Microplate, cat. no. 3575), followed by an incubation for 1 hour at room temperature, a centrifugation step for 1 minute at 1000 rpm and the detection of the luminescence signal using an EnVision microplate reader (Perkin Elmer Inc.). Concentration-response curve-fitting and IC50 determination was performed using Evotec's in-house evaluation software APlus with a four-parameter non-linear regression fit model. Data was normalized to 0.5% (final concentration) DMSO as low/negative control and 1 μM (final concentration) NDI-094311 as high/positive control.
# T1 sequence (P53396 whole entry): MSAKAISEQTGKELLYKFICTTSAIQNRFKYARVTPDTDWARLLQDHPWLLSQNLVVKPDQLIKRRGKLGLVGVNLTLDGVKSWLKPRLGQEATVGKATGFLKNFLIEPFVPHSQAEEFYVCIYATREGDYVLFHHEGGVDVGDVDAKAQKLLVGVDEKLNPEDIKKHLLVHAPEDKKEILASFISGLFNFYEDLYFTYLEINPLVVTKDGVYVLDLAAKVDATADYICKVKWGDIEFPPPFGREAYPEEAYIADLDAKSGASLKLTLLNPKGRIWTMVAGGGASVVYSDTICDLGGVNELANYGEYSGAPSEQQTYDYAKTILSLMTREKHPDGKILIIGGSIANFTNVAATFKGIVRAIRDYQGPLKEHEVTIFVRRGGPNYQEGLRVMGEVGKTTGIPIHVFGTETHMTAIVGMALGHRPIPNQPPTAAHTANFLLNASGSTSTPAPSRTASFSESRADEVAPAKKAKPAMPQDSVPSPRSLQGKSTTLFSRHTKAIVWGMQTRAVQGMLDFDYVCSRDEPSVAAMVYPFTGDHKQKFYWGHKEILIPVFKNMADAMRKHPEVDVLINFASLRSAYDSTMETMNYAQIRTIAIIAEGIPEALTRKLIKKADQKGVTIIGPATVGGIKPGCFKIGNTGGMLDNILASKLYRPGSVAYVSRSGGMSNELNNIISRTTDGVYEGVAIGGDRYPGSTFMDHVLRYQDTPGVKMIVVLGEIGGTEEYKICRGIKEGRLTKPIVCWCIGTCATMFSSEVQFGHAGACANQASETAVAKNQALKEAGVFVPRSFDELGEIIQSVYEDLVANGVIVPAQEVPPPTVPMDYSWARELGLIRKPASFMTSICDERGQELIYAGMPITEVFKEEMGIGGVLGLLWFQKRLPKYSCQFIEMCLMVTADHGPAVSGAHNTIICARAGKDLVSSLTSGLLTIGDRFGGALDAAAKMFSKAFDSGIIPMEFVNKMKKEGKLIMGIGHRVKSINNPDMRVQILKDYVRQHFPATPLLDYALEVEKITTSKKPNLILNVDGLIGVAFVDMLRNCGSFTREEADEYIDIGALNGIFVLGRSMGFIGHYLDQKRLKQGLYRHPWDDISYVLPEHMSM
SMILES,IC50 (ACLY [1]) [nM],IC50 (ACLY [2]) [nM]
"O=C1OCCOc2cc(F)ccc2-c2ccc(F)c(c2)NS(=O)(=O)c2cc1cc(Cl)c2O [Compound 48, 15-chloro-5,21-difluoro-16-hydroxy-18,18-dioxo-8,11-dioxa-18λ6-thia-19-azatetracyclo[18.3.1.113,17.02,7]pentacosa-1(23),2(7),3,5,13(25),14,16,20(24),21-nonaen-12-one]",< 20,< 300
"O=S1(=O)Nc2cc(ccc2F)-c2ccccc2CCCOCc2cc(Cl)c(O)c1c2 [Compound 92, 15-chloro-21-fluoro-18,18-dioxo-11-oxa-18λ6-thia-19-azatetracyclo[18.3.1.113,17.02,7]pentacosa-1(24),2,4,6,13,15,17(25),20,22-nonaen-16-ol]",100 to 10000,1000 to 50000
"O=C1OCCOc2ccc(Cl)cc2-c2ccc(F)c(c2)NS(=O)(=O)c2cc1cc(Cl)c2O [Compound 52, 4,15-dichloro-21-fluoro-16-hydroxy-18,18-dioxo-8,11-dioxa-18λ6-thia-19-azatetracyclo[18.3.1.113,17.02,7]pentacosa-1(23),2(7),3,5,13,15,17(25),20(24),21-nonaen-12-one]",20 to 100,300 to 1000
"O=C1OCc2ccc(F)cc2-c2cc(c(F)cc2F)NS(=O)(=O)c2cc1cc(Cl)c2O [Compound 81, 13-chloro-4,19,21-trifluoro-14-hydroxy-16,16-dioxo-9-oxa-16λ6-thia-17-azatetracyclo[16.3.1.111,15.02,7]tricosa-1(21),2,4,6,11(23),12,14,18(22),19-nonaen-10-one]",< 20,< 300
"CC1CCOC(=O)c2cc(Cl)c(O)c(c2)S(=O)(=O)Nc2cc(c(F)cc2F)-c2ccccc21 (single isomer, unassigned) [Compound 45, 15-chloro-21,23-difluoro-16-hydroxy-8-methyl-18,18-dioxo-11-oxa-18λ6-thia-19-azatetracyclo[18.3.1.113,17.02,7]pentacosa-1(23),2(7),3,5,13,15,17(25),20(24),21-nonaen-12-one]",20 to 100,< 300
"O=C1OCc2cccc(c2)Oc2cc(c(F)cc2F)NS(=O)(=O)c2cc1cc(Cl)c2O [Compound 34, 12-chloro-4,6-difluoro-11-hydroxy-9,9-dioxo-2,16-dioxa-9λ6-thia-8-azatetracyclo[16.3.1.13,7.110,14]tetracosa-1(22),3,5,7(24),10(23),11,13,18,20-nonaen-15-one]",100 to 10000,≥ 50000
"O=C1OCCOc2ccccc2-c2cc(F)c(F)c(c2)NS(=O)(=O)c2cc1cc(Cl)c2O [Compound 54, 15-chloro-21,22-difluoro-16-hydroxy-18,18-dioxo-8,11-dioxa-18λ6-thia-19-azatetracyclo[18.3.1.113,17.02,7]pentacosa-1(23),2(7),3,5,13(25),14,16,20(24),21-nonaen-12-one]",< 20,< 300
"O=C1OCCc2ccc(F)cc2-c2ccc(F)c(c2)NS(=O)(=O)c2cc1cc(Cl)c2O [Compound 74, 14-chloro-4,20-difluoro-15-hydroxy-17,17-dioxo-10-oxa-17λ6-thia-18-azatetracyclo[17.3.1.112,16.02,7]tetracosa-1(22),2(7),3,5,12(24),13,15,19(23),20-nonaen-11-one]",20 to 100,< 300
"O=C1OCCOc2ccccc2-c2ccc(F)c(c2)NS(=O)(=O)c2cc1cc(Cl)c2O [Compound 23, 15-chloro-21-fluoro-16-hydroxy-8,11-dioxa-18lambda6-thia-19-azatetracyclo[18.3.1.1^13,17.0^2,7]pentacosa-1(24),2,4,6,13,15,17(25),20,22-nonaene-12,18,18-trione]",< 20,< 300
"Cc1cc(F)c2cc1-c1ccccc1OCCOC(=O)c1cc(Cl)c(O)c(c1)S(=O)(=O)N2 [Compound 50, 15-chloro-21-fluoro-16-hydroxy-23-methyl-18,18-dioxo-8,11-dioxa-18λ6-thia-19-azatetracyclo[18.3.1.113,17.02,7]pentacosa-1(23),2(7),3,5,13(25),14,16,20(24),21-nonaen-12-one]",< 20,< 300
"O=C1OCCOc2ccc(F)cc2-c2cc(F)c(F)c(c2)NS(=O)(=O)c2cc1cc(Cl)c2O [Compound 79, 15-chloro-4,21,22-trifluoro-16-hydroxy-18,18-dioxo-8,11-dioxa-18λ6-thia-19-azatetracyclo[18.3.1.113,17.02,7]pentacosa-1(23),2(7),3,5,13,15,17(25),20(24),21-nonaen-12-one]",< 20,< 300
"O=C1OCCOc2ccccc2-c2cc(c(F)cc2F)NS(=O)(=O)c2cc1cc(=O)[nH]2 [Compound 38, 21,23-difluoro-18,18-dioxo-8,11-dioxa-18λ6-thia-16,19-diazatetracyclo[18.3.1.113,17.02,7]pentacosa-1(23),2(7),3,5,13,17(25),20(24),21-octaene-12,15-dione]",20 to 100,≥ 50000
"O=C1OCc2ccccc2-c2cc(c(F)cc2F)NS(=O)(=O)c2cc1cc(Cl)c2O [Compound 78, 13-Chloro-19,21-difluoro-14-hydroxy-16,16-dioxo-9-oxa-16λ6-thia-17-azatetracyclo[16.3.1.111,15.02,7]tricosa-1(21),2(7),3,5,11(23),12,14,18(22),19-nonaen-10-one]",< 20,< 300
"O=C1NCCOc2ccccc2-c2cc(c(F)cc2F)NCc2cc1ccc2O [Compound 13, 21,23-difluoro-16-hydroxy-8-oxa-11,19-diazatetracyclo[18.3.1.1^13,17.0^2,7]pentacosa-1(23),2,4,6,13,15,17(25),20(24),21-nonaen-12-one]",≥ 10000,≥ 50000
"N#Cc1ccc2c(c1)COC(=O)c1cc(Cl)c(O)c(c1)S(=O)(=O)Nc1cc-2c(F)cc1F [Compound 85, 13-chloro-19,21-difluoro-14-hydroxy-10,16,16-trioxo-9-oxa-16λ6-thia-17-azatetracyclo[16.3.1.111,15.02,7]tricosa-1(21),2(7),3,5,11,13,15(23),18(22),19-nonaene-5-carbonitrile]",< 20,≥ 50000
"O=S1(=O)Nc2cc(ccc2F)-c2ccccc2CCOCc2cc(Cl)c(O)c1c2 [Compound 69, 14-chloro-20-fluoro-17,17-dioxo-10-oxa-17λ6-thia-18-azatetracyclo[17.3.1.112,16.02,7]tetracosa-1(23),2,4,6,12,14,16(24),19,21-nonaen-15-ol]",100 to 10000,< 300
"Cc1cccc2c1-c1cc(c(F)cc1F)NS(=O)(=O)c1cc(cc(Cl)c1O)C(=O)OCCO2 [Compound 49, 15-chloro-21,23-difluoro-16-hydroxy-3-methyl-18,18-dioxo-8,11-dioxa-18λ6-thia-19-azatetracyclo[18.3.1.113,17.02,7]pentacosa-1(23),2(7),3,5,13(25),14,16,20(24),21-nonaen-12-one]",≥ 10000,≥ 50000
"O=C1OCC2Cc3cccc(c3O2)-c2cc(c(F)cc2F)NS(=O)(=O)c2cc1cc(Cl)c2O (single isomer, unassigned) [Compound 40, 15-chloro-21,23-difluoro-16-hydroxy-18,18-dioxo-8,11-dioxa-18λ6-thia-19-azapentacyclo[18.3.1.16,9.113,17.02,7]hexacosa-1(23),2(7),3,5,13,15,17(25),20(24),21-nonaen-12-one]",100 to 10000,300 to 1000

# Reference: US20250289793A1, “MACROCYCLIC INHIBITORS OF ATP CITRATE LYASE” (Esperion Therapeutics, Inc., priority 2022, published 2025)
